# Laboratory results taken from US20260216143A1, “PHARMACEUTICAL COMPOSITION FOR TREATING CHRONIC KIDNEY DISEASE” (priority 2020, published 2026).
# How the values were obtained:
# [1] = system: Alport syndrome model (129-Col4a3tm 1Dec/J) mice; experiment: Body weight of Alport syndrome (AS) mice (Example 2); format: in vivo, mouse; settings: FIG. 16; groups receiving a DHA ethyl ester; p<0.01, t test
# Method: Body weight was measured using a scale for animals twice weekly from the grouping day and daily from the day of the first animal death until the sampling day of each group.
# Animals were restrained, and a test substance was administered directly into the stomach using a 1-mL syringe and a sonde (Fuchigami Kikai, CAT No. 5200). Administration was performed in accordance with the conditions described in Section 5.1., so that a volume of 5 mL/kg should be administered to each animal. The volume administered was calculated on the basis of the most recent (before the administration day) body weight.
# The mean and standard error of the body weight and the wet weight of each organ were calculated for each study group. Further, each of the measured values was compared between the Group Number (2) and each of other groups. A statistical analysis add-in software “Excel Statistics 2015” (Social Survey Research Information Co., Ltd.) was used for statistical processing, and a significant difference was determined with a […] (p value)<0.05.
# [2] = system: Alport syndrome model (129-Col4a3tm1Dec/J) mice; experiment: Survival of Alport syndrome model mice, oral repeated administration (Example 1); format: in vivo, mouse; settings: Pirespa 100 mg/kg/day, FIG. 1
# Method: Each test substance is orally and repeatedly administered to Alport syndrome model (129-Col4a3tm1Dec/J) mice for 10 weeks, and then a serum biochemistry test is performed. The kidneys are further observed histopathologically to examine the effect of administration of each test substance on the kidneys.
# Test substances were prepared for each use before use on the experiment day. Candesartan was dissolved at a dose of 4 mg/mL in phosphate-buffered saline (hereinafter referred to as PBS) to prepare a dosing solution (10 mg/2.5 mL/kg) for Group Numbers 6 and 7. A solution was prepared by diluting this dosing solution with an equal amount of PBS as a dosing solution (10 mg/5 ml/kg) for Group Number 3. Pirespa was dissolved at a dose of 40 mg/mL in PBS and dissolved in PBS which was to be a dosing solution (50 mg/1.25 mL/kg) for Group Number 6. A solution was prepared by diluting this dosing solution with an equal amount of PBS as a dosing solution (50 mg/2.5 mL/kg) for Group Number 4. Lotriga was suspended at a dose of […] in a 0.5% methylcellulose solution (hereinafter referred to as MC) to prepare a dosing solution (1500 mg/2.5 mL/kg) for Group Number 7. […]
# Animals were restrained, and a test substance was orally administered using a 1-mL syringe and a sonde. […] The volume administered was calculated on the basis of the most recent body weight. […]
# [3] = system: Alport syndrome model (129-Col4a3tm1Dec/J) mice; experiment: Body weight of Alport syndrome model mice (Example 1); format: in vivo, mouse; settings: FIG. 2; body weight immediately before death used for dead mice; candesartan 10 mg/kg, Lotriga 1500 mg/kg
# Method: Body weight was measured using a scale for animals twice weekly from the grouping day and on the sampling day of each group.
# Animals were restrained, and a test substance was orally administered using a 1-mL syringe and a sonde. Administration was performed in accordance with the conditions described in Section 5.1., so that a volume of approximately 0.1 mL should be administered to each animal. The volume administered was calculated on the basis of the most recent body weight. […] The administration interval was 6 hours or longer.
# Of note, when the mean body weight was calculated, the body weight of a dead mouse was not assumed as zero, and the body weight measured immediately before death was used for calculation.
# [4] = system: Alport syndrome model (129-Col4a3tm1Dec/J) mice; format: in vivo; settings: FIG. 4
# Method: (§1) The body weights of animals were measured at Day 45, blood was drawn from the caudal vena cava under anesthesia with isoflurane, and animals were euthanized by exsanguination. Death was confirmed by visually observing cardiopulmonary arrest (euthanasia). Then, the left and right kidneys, the left and right femurs, the left and right eyeballs, the cochlea, the heart, and the pancreas were collected and trimmed, and the wet weights of the left and right kidneys, the left and right femurs, and the heart were measured. Among the collected biotissues, the left and right femurs were immersed in a 70% ethanol solution. Other tissues were immersed in a 10% neutral buffered formalin solution. Of note, the right kidney was divided into two at the renal pelvis and immersed after to obtain kidney specimens.
# The obtained blood was allowed to stand at room temperature for at least four hours and centrifuged under conditions of 4° C., 12000 rpm, and 3 min to obtain serum. Serum was divided into two tubes and frozen.
# Blood biochemistry test items were measured using the frozen serum delegated to the external facility. The measurement items were total protein, albumin, blood urea nitrogen (BUN), creatinine (CRE), uric acid, sodium (Na), potassium (K), chloride (CI), calcium, phosphorus, amylase, lipase, AST (GOT), ALT (GPT), Y-GTP, LDH, triglyceride, total cholesterol, HDL cholesterol, total bilirubin, and glucose. Pooled specimens of each group were used for measurement.
# [5] = system: Alport syndrome model (129-Col4a3tm1Dec/J) mice; experiment: Histopathological test of the kidneys: HE, PAS, MT, PAM staining and damage scoring (Example 1); format: in vivo, mouse
# Method: as §1
# The kidneys immersed in a 10% neutral buffered formalin solution were sent to the external facility, and Hematoxylin-Eosin (HE) staining, Periodic Acid-Schiff (PAS) staining, Masson's Trichrome (MT) staining, and Periodic Acid Methenamine silver (PAM) staining were performed for pathological assessment.
# The severity of glomerular damage was assessed in each group of Alport syndrome model mice. Specifically, the severity was quantified for glomerulosclerosis, crescent formation, and basement membrane with a double contour with five levels (0, no change; 1, slight; 2, mild; 3, moderate; 4, severe. Refer to “Guidance on pathological diagnosis of diabetic nephropathy and hypertensive nephrosclerosis,” Tokyo Igakusha).
# The severity of renal tubular damage was assessed in each group of Alport syndrome model mice. Specifically, the severity was quantified for renal tubular expansion accompanied by hyaline casts, interstitial fibrosis, inflammatory cell infiltration into the interstitium, and renal tubular expansion accompanied by cellular casts with five levels (0, no change; 1, slight; 2, mild; 3, moderate; 4, severe. Refer to “Guidance on pathological diagnosis of diabetic nephropathy and hypertensive nephrosclerosis,” Tokyo Igakusha).
# Col4a3−/− mice = settings: cited from earlier work
# [6] = serum, pooled specimens per group, Day 45
smiles,measurement,setting,value
"CC/C=C\C/C=C\C/C=C\C/C=C\C/C=C\C/C=C\CCC(=O)OCC [DHA ethyl ester, docosahexaenoic acid ethyl ester]",mean body weight vs untreated group,[1],significantly increased as compared with the untreated group
Cc1ccc(=O)n(-c2ccccc2)c1 [Pirespa],survival (in words),"[2]; up to Day 45, candesartan 10 mg/kg, Lotriga 1500 mg/kg",all mice died early
"CCOc1nc2cccc(C(=O)OC(C)OC(=O)OC3CCCCC3)c2n1Cc1ccc(-c2ccccc2-c2nn[nH]n2)cc1 (stereo not drawn) [candesartan, Candesartan cilexetil]",survival rate,"[2]; Day 45 (end of study), candesartan 10 mg/kg once daily, Lotriga 1500 mg/kg once daily",40%
same,changes with time in the mean body weight,[3],"body weight loss began from 25 days after administration, and marked body weight loss was also observed in surviving mice"
same,progression of renal failure,[4]; judged from blood biochemistry,at a level comparable to that in the untreated group
same,BUN level,[4]; [6],very high and as high as in the untreated group
same,K level,[4]; [6],development of hyperkalemia
same,creatinine level,[4]; [6],very high and as high as in the untreated group
same,"kidney histopathology, HE staining findings",[5]; FIG. 7,"adhesion to the glomerulus due to glomerulosclerosis and crescent formation, renal tubular expansion, and lymphocyte infiltration into the interstitium were observed at various sites"
same,"kidney histopathology, PAS staining findings",[5]; FIG. 8,"glomerulosclerosis, in which PAS-positive substances were deposited on the mesangial substrate, and growth of crescent cells were observed"
same,"kidney histopathology, MT staining (fibrosis)",[5]; FIG. 9,Fibrosis was observed in an area of crescent hyperplasia and in the renal tubular interstitium
same,"kidney histopathology, PAM staining (double contour of the loop wall)",[5]; FIG. 10,A double contour of the loop wall was observed
same,serum urea concentration,Col4a3−/− mice,markedly decreased
same,survival time,Col4a3−/− mice,significantly prolonged
same,urine protein level,Col4a3−/− mice,markedly decreased
CCOC(=O)[C@H](CCc1ccccc1)N[C@@H](C)C(=O)N1[C@H](C(=O)O)C[C@@H]2CCC[C@@H]21 [ramipril],serum urea concentration,Col4a3−/− mice,markedly decreased
same,survival time,Col4a3−/− mice,significantly prolonged
same,urine protein level,Col4a3−/− mice,markedly decreased
